Assay results reported in patent US10183039B2, “Methods for the production of collagen IV” (Vanderbilt University, priority 2013, dated 2019).
pEC50, pIC50: −log10 of the molar value.

What was measured:
PFHR-9 cells = test: Collagen IV sulfilimine crosslink formation in PFHR-9 cell culture (NC1 hexamer, SDS-PAGE); format: cell-based, mouse; settings: for effect on NC1 dimer / crosslink formation in culture: PFHR9 matrix grown 5-8 days with potassium halide salts, SDS-PAGE; for pIC50: halide/pseudohalide screen in cell culture, read-out: IC50, inhibition of S═N formation
peroxidasin = biological target: T1, peroxidasin (Mus musculus, UniProt Q3UQ28); test: In vitro basement membrane (uncrosslinked PFHR-9 matrix) reaction with halides and H2O2; format: biochemical; settings: for S═N bond formation in isolated matrix: 10 mM phosphate pH 7.4, 100 mM KF, 1 mM H2O2, 1 h at 37° C.
T1 construct: Cultured murine PFHR9 cells synthesize collagen IV networks that contain sulfilimine crosslinks due to the activity of PXDN; endogenous in cells; host or cells: PFHR-9 cells (isolated matrix from KI-treated culture)
T1 sequence (Q3UQ28 24-1475): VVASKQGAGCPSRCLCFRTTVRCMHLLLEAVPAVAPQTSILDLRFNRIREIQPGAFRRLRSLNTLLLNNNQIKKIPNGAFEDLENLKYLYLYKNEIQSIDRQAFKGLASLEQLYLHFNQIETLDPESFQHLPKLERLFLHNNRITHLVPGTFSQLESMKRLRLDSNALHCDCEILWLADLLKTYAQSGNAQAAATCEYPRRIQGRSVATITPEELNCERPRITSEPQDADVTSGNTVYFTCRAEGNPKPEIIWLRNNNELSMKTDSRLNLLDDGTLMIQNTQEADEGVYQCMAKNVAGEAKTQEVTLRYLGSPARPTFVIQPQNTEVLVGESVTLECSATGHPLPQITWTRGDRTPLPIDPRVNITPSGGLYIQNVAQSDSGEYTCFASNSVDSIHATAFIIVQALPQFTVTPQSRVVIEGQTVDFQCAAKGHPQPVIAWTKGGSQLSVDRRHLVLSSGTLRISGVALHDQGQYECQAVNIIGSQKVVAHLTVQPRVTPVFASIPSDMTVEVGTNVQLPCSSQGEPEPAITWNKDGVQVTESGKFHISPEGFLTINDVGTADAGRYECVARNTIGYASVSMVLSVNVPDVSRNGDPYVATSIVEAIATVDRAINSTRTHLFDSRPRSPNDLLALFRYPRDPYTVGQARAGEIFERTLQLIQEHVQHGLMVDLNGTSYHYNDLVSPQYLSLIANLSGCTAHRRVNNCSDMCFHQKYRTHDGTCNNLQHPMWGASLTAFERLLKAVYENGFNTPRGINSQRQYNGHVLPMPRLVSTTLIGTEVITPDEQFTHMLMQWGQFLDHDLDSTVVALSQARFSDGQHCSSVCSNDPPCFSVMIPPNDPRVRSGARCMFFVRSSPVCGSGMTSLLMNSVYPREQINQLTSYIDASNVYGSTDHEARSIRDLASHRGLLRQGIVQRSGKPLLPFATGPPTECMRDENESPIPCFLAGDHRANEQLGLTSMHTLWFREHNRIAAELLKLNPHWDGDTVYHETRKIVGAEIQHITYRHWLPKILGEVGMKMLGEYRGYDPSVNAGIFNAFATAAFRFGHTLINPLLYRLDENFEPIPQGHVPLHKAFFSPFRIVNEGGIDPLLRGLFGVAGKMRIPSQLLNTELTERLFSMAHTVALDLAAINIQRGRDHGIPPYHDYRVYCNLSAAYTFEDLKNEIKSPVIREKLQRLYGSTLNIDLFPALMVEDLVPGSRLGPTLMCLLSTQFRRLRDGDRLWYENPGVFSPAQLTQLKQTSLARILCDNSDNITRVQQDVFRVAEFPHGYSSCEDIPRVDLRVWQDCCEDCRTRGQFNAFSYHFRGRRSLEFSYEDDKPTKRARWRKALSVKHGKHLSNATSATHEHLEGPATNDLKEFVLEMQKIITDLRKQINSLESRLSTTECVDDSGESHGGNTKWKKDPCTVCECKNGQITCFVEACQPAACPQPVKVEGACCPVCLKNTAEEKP
Description: (FIG. 8A) Matrix pellets isolated from KI-treated PFHR9 cell culture were extensively washed into 10 mM phosphate buffer (pH 7.4) supplemented with 100 mM KF to maintain ionic strength. Potassium salts of Cl— or Br— were added in indicated amounts. 1 hr reactions at 37° C. were initiated by addition of H2O2 to 1 mM and stopped by freezing at −20° C. Coomassie blue-stained gels after collagenase digestion of the samples and SDS-PAGE (FIG. 8B) Schematic of Br-Free chloride salt purification apparatus and setup. […] Reagent KCl was commercially obtained and unaltered prior to analysis. 100 mM solutions were made with 18MΩ deionized water. (FIG. 8C) Coomassie blue stained gel of collagenase digested PFHR-9 matrix reaction assay. Reaction buffered contained 10 mM phosphate buffer (pH 7.4), 100 mM Br-Free or Commercially obtained reagent grade KCl, as well as 1 mM H2O2 and 200 μM PHG where appropriate. (FIG. 8D) SDS-PAGE and coomassie blue stain of hPXDN (27.25 nM) and NC1 domain (1.3 μM) reaction and subsequent densiometric quantitation of S═N bond formation stiochiometry in response to NaBr addition. hPXDN and PFHR-9 NC1 domain were prepared and purified as described (5), except with all buffers for all purification steps (dialysis, chromatography, gradient ultracentrifugation) made with Br-Free chloride salts. Reactions were run for 10 minutes at 37° C. with 10 μM H2O2 as the terminal oxidant. Dose-response curve run in the presence of 1× Br-Free PBS. Reactions were quenched with 0.2 mg/ml Catalase, 20 mM Methionine, and 1 mM PHG. EC50 value±95% C.I. from two independent experiments with each data point plotted and fit.
Uncrosslinked PFHR9 matrix was extensively washed into 10 mM phosphate buffer (pH 7.4) that was supplemented with 100 mM KF to maintain ionic strength. One hour reactions at 37° C. were initiated by addition of H2O2 to 1 mM and stopped by freezing at −20° C. […] Samples were digested with collagenase at 37° C. overnight and visualized by SDS-PAGE using 12% gels under non-reducing conditions with Coomassie staining.
PFHR-9 cells treated with potassium iodide (1-10 mM) to eliminate NC1 hexamer crosslinks were used for basement membrane isolation. To test halide dependency, the inventors established halide-free conditions by washing extensively (at least five times) with 10 mM sodium phosphate pH 7.4. To try to extract or inactivate endogenous basement membrane peroxidase activity, the inventors extracted the matrix preparation twice with 2M guanidine-Cl, 50 mM Tris-Cl pH 7.5 and 10 mM EDTA-Na pH 8 followed by extensive washing with 1×PBS. Basement membrane was resuspended in the desired buffer with or without cofactors and inhibitors to examine in vitro NC1 crosslinking under various conditions. Basement membranes were collagenase solubilized to delineate collagen IV NC1 sulfilimine crosslink formation with SDS-PAGE and Coomassie blue staining membrane was isolated, washed extensively and resuspended in 1×PBS. Azide (0-10 mM) and 1 mM H2O2 were added and allowed to react for 1 h at 37° C. The matrix was pelleted, washed extensively with 1×PBS and solubilized with 1×PBS plus 2% (w/v) SDS. Solubilized proteins were reacted with 100 μM Tris[(1-benzyl-1H-1,2,3-triazol-4-yl)methyl]amine (Anaspec), 1 mM Tris(2-carboxyethyl)phosphine hydrochloride (ThermoFisher Pierce), 1 mM cupric sulfate and 100 μM biotin alkyne (PEG4 carboxamide-propargyl biotin; Life Technologies) for 1 h at 37° C. Click chemistry reactions were quenched with 1 mM 3′-azido-3′-deoxythymidine (Sigma). For avidin-HRP detection, samples were electrophoresed under reducing conditions, transferred to nitrocellulose membranes and probed with streptavidin-HRP according to manufacturer instructions (ThermoFisher Pierce). To isolate biotinylated proteins, the inventors precipitated click reaction products with two volumes of cold acetone to remove reactants, washed them with 70% (v/v) acetone and then resolubilized them in 1×PBS plus 2% SDS.

collagen IV NC1 hexamer = biological target: T2, collagen IV NC1 hexamer (Mus musculus, UniProt P02463+P08122); test: Hypohalous acid oxidation of purified uncrosslinked NC1 hexamer; settings: for crosslinked dimeric subunits (percentage of dimeric subunit): 500 nM NC1 hexamer, 5 μM hypohalous acid, 30 min at 37° C. (FIG. 4A); for effect of pretreatment on S═N bond formation by HOBr: NC1 hexamer pretreated with the substance, then treated with HOBr
T2 sequence (P02463 1445-1669 limits assumed): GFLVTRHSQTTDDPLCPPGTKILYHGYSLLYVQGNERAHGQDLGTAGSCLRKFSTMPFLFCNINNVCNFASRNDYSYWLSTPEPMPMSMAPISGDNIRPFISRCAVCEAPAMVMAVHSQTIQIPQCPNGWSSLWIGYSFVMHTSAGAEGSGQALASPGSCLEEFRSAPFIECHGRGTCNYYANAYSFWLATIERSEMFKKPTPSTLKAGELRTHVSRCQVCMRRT
T2 sequence (P08122 1484-1707 limits assumed): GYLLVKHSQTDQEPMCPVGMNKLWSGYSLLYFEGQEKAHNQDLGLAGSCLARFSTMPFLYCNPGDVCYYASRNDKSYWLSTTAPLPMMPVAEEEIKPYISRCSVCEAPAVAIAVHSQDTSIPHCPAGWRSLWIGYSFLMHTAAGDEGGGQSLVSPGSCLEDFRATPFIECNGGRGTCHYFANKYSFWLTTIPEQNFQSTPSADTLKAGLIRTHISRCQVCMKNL
Description: (FIG. 4A) Five hundred nanomolar collagen IV NC1 hexamer (3 μM potential crosslinks) was incubated alone (control) or with 5 μM hypochlorous (HOCl) or hypobromous acid (HOBr) for 30 min at 37° C. […] (FIGS. 4B-D) 16 nM myeloperoxidase (MPO) (FIG. 4B), eosinophil peroxidase (EPO) (FIG. 4C) or lactoperoxidase (LPO) (FIG. 4D) were reacted with 500 nM NC1 hexamer (3 μM potential crosslinks) for varying time points in 1×PBS with or without 10 μM H2O2. In the case of LPO, all reactions proceeded for 60 min. Collagen IV-sulfilimine crosslink content was visualized after SDS-PAGE and Coomassie blue staining of the reactions. Each gel is representative of three independent experiments. PHG, phloroglucinol; MW, molecular weight.
FIGS. 9A-D. Chemical mechanism of sulfilimine formation within the NC1 hexamer. (FIG. 9A) Purified uncrosslinked NC1 hexamer (5 μM) was reacted for 5 minutes at 37° with the indicated amounts of hypohalous acids and analyzed by SDS-PAGE. […] Values represent mean±S.D. (n=3). (FIG. 7B) Uncrosslinked NC1 hexamer (1.3 μM) in Br-Free PBS was preoxidzed with indicated amounts of HOCl for 1 min at 37 C, followed by post-oxidation with the addition of 8 mol eq. HOBr (or HOCl as a control) which was reacted for an additional minute at 37° C., then quenched with 20 mM methionine. Gel is representative of two experiments (FIG. 9C) XIC analysis of the residual monomeric NC1 subunit following HOCl oxidation (10 mol eq) compared to input NC1 monomer after SDS-PAGE and in-gel trypsin digestion. ^16O addition to the methionine residues was confirmed by MS3 analysis. (FIG. 9D) Met93 oxidation pathway consistent with experimental data and the resultant enthalphic landscape for S═N bond formation within the NC1 hexamer.
(FIG. 15) Fifty micromolar of hypohalous oxidants were added to 5 μM uncrosslinked NC1 domains, and reacted for 5 minutes at 37° C. before quenching by adding L-methionine to 1 mM final concentration. […] Experiments were run in triplicate and analyzed by 12% non-reducing SDS-PAGE and ImageJ.
The efficiency of HOBr as a reagent was compared to other hypohalous acids, during a 5′ reaction with uncrosslinked hexamers containing 5 μM NC1 domains.
The inventors therefore tested the molar efficiency of oxidation of purified uncrosslinked NC1 hexamer with HOCl and HOBr (FIG. 9A). […] To test this, they pretreated uncrosslinked NC1 hexamer with varying concentrations of HOCl, then treated with HOBr. […] As an independent approach to testing the dead-end sulfoxide hypothesis, the inventors pretreated NC1 hexamer with escalating levels of H2O2, a reagent known to generate methionine sulfoxides (Liang et al., 2012). […] They next decided to directly visualize the peptide containing Met93, the S donor of the S═N bond, within the residual monomeric NC1 fraction after HOCl oxidation and compare its oxidation status to untreated NC1 hexamer.

[1] = matrix grown 5-8 days with potassium salts, 95% CI

[Br-].[K+] [KBr, potassium bromide] was tested, and the “effect on NC1 dimer / crosslink formation in culture” value (PFHR-9 cells) was “dimer enhancement” and the pEC50 (PFHR-9 cells; halide screen in cell culture, matrix grown 5-8 days with potassium salts, 95% CI, read-out: EC50, enhancement of S═N formation) was 4.12.

In the case of N#C[S-].[K+] [KSCN, potassium thiocyanate], the “effect on NC1 dimer / crosslink formation in culture” value (PFHR-9 cells) was “dimer inhibition”, the “effect on NC1 dimer / crosslink formation in culture” value (PFHR-9 cells; listed as SCN^−) was “potent inhibitor of peroxidasin-mediated crosslink formation” and the pIC50 (PFHR-9 cells; [1]) was 4.77.

With [F-].[K+] [Fluoride, potassium fluoride] the “S═N bond formation in isolated matrix” value (peroxidasin) was “inert”.

With OCl [HOCl, hypochlorous acid] the “crosslinked dimeric subunits (percentage of dimeric subunit)” value (collagen IV NC1 hexamer) was “increased significantly”, the “crosslinked dimeric subunits (percentage of dimeric subunit)” value (collagen IV NC1 hexamer; listed as hypochlorous acid) was “yielded crosslinked dimeric subunits” and the “concentration required to drive S═N bond formation” value (collagen IV NC1 hexamer; 5 μM NC1 hexamer, 5 minutes at 37° (FIG. 9A)) was 50 µM. The “effect of pretreatment on S═N bond formation by HOBr” value (collagen IV NC1 hexamer) was “decreased with pretreatment of increasing levels of HOCl” and the “S═N bond formation as share of total Met93 oxidized” value (collagen IV NC1 hexamer; oxidation event 1 (OE1), S—Cl or S—Br halosulfonium intermediate) was 19%.

For [Cl-].[K+] [Br-free KCl, KCl], the “dimer formation with bromide-free chloride as halide source” value (peroxidasin; 100 mM Br-free chloride salt, 1 mM H2O2, isolated PFHR-9 matrix) was “did not support dimer formation to levels comparable with untreated controls”.

With OO [H2O2, hydrogen peroxide] the “effect of pretreatment on S═N bond formation by HOBr” value (collagen IV NC1 hexamer) was “dose-dependent decrease in the crosslinking efficacy of HOBr” and the “sulfilimine bond formation in isolated basement membrane” value (peroxidasin; inhibitor removed, with versus without H2O2 (FIG. 2C)) was “Sulfilimine bonds formed rapidly”.

With [I-].[K+] [potassium iodide] the “S═N bond formation in isolated matrix” value (peroxidasin) was “demonstrated no S═N formation”, the “S═N bond formation in isolated matrix” value (peroxidasin; listed as KI) was “did not faciliate crosslinking” and the “effect on NC1 dimer / crosslink formation in culture” value (PFHR-9 cells) was “dimer inhibition”. For the same compound, the pIC50 (PFHR-9 cells; [1]) was 4.08 and the “formation of collagen IV crosslinks” value (PFHR-9 cells; inhibitor present during cellular deposition of basement membrane, FIG. 2A: PHG 50 μM, MMI 1 mM, KI 10 mM, 3-AT 10 mM, BAPN 500 μM, putrescine 2.5 mM) was “inhibited collagen IV crosslink formation”.
